Values of other authors, collected in US20120258914A1, “COACERVATION PROCESS” (Alkermes, Inc., priority 2007, published 2012).

In the case of exendin-4, the secretion of insulin (in the presence of elevated blood glucose concentrations, but not during hypoglycemia) is given as “stimulate secretion of insulin”, the “food intake and body weight” value (in vivo) is given as “affect food intake and body weight” and the gastric emptying (in vivo) is given as “slow gastric emptying”. For the same substance, the glucagon secretion (in vivo) was “suppress glucagon secretion”.
